Laboratory results taken from EPA's ToxRefDB 2.

What was measured:
[1] = system: mouse; conditions: Subchronic oral toxicity in rodents, b6c3f1, Gavage/Intubation, dose end: 14 week, group: systemic
[2] = system: rat; conditions: Subchronic oral toxicity in rodents, fischer, Gavage/Intubation, dose end: 14 week, group: systemic
[3] = system: rat; conditions: Carcinogenicity, fischer, Oral, Gavage/Intubation, dose end: 104 week, group: systemic
[4] = system: mouse; conditions: Carcinogenicity, b6c3f1, Oral, Gavage/Intubation, dose end: 105 week, group: systemic
[5] = system: rat; conditions: Subchronic oral toxicity in rodents, fischer, Dermal, Topical, dose end: 14 week, group: systemic
[6] = system: mouse; conditions: Subchronic oral toxicity in rodents, b6c3f1, Dermal, Topical, dose end: 14 week, group: systemic
[7] = system: mouse; conditions: Carcinogenicity; b6c3f1; Dermal; Topical; dose end: 2 year; group: systemic; systemic / pathology microscopic / skin / hyperplasia
[8] = system: rat; conditions: Combined chronic toxicity/carcinogenicity, fischer, Dermal, Topical, dose end: 2 year, group: systemic
[9] = system: rabbit; conditions: Prenatal developmental toxicity study, new zealand white, Oral, Gavage/Intubation, dose end: 19 GD
[10] = system: dog; conditions: Chronic toxicity, beagle, Oral, Feed, dose end: 52 week, group: systemic
[11] = system: rat; conditions: Prenatal developmental toxicity study, sprague dawley, Oral, Gavage/Intubation, dose end: 15 GD
[12] = system: rat; conditions: Developmental neurotoxicity study; wistar; Oral; Gavage/Intubation; dose end: 90 PND; group: cannot be grouped; systemic / in life observation / clinical signs / poor maternal care + systemic / in life observation / clinical signs / grip strength + …
[13] = system: rat; conditions: Prenatal developmental toxicity study, sprague dawley, Oral, Gavage/Intubation, dose end: 15 GD; remark: listed apart in the source
[14] = system: rat; conditions: Subchronic oral toxicity in rodents, fischer, Feed, dose end: 90 day, group: systemic, systemic / hematology / hematocrit (hct) / hematocrit (hct) + systemic / hematology / hemoglobin (hgb) / hemoglobin (hgb) + systemic / …
[15] = system: mouse; conditions: Carcinogenicity, cd1, Oral, Feed, dose end: 18 month, group: systemic
[16] = system: rat; conditions: Prenatal developmental toxicity study, sprague dawley, Oral, Gavage/Intubation, dose end: 15 GD; remark: listed apart in the source
[17] = system: dog; conditions: Subchronic oral toxicity in nonrodent, beagle, Feed, dose end: 13 week, group: systemic
[18] = system: mouse; conditions: Subchronic oral toxicity in rodents, b6c3f1, Feed, dose end: 90 day, group: systemic
[19] = systemic / organ weight / liver / absolute
[20] = systemic / organ weight / liver / absolute + systemic / organ weight / liver / relative to body weight
[21] = systemic / organ weight / kidney / relative to body weight
[22] = systemic / organ weight / kidney / relative to body weight + systemic / clinical chemistry / alanine aminotransferase (alt/sgpt) / alanine …
[23] = systemic / pathology microscopic / liver / basophilic focus + systemic / pathology microscopic / liver / fatty change + systemic / pathology…
[24] = systemic / pathology microscopic / kidney / glomerulonephropathy + systemic / pathology microscopic / liver / [other] + systemic / pathology…
[25] = systemic / pathology microscopic / liver / clear cell focus + systemic / pathology microscopic / nose / degeneration + systemic / pathology …
[26] = systemic / in life observation / clinical signs / skin discoloration + systemic / organ weight / liver / absolute + systemic / organ weight…
[27] = systemic / pathology microscopic / skin / hyperplasia
[28] = group: developmental, systemic / in life observation / body weight / fetal weight
[29] = group: developmental, systemic / in life observation / body weight / fetal weight + developmental / developmental malformation / bone / fused + developmental / …
[30] = group: maternal, reproductive / reproductive performance / aborted / aborted + reproductive / reproductive performance / resorptions / resorptions + systemic…
[31] = systemic / hematology / microcytosis / microcytosis + systemic / clinical chemistry / albumin / albumin + systemic / clinical chemistry / …
[32] = group: maternal, reproductive / reproductive performance / postimplantation loss / postimplantation loss + reproductive / reproductive performance / …
[33] = group: developmental, developmental / developmental malformation / bone / incomplete ossification + developmental / developmental malformation / bone / …
[34] = group: maternal, systemic / organ weight / spleen / relative to brain weight + systemic / pathology microscopic / spleen / hematopoietic cell proliferation
[35] = group: maternal, systemic / organ weight / spleen / relative to brain weight + systemic / pathology microscopic / spleen / hematopoietic cell proliferation…
[36] = systemic / pathology microscopic / adrenal gland / amyloid deposition + systemic / pathology microscopic / kidney / amyloid deposition + …
[37] = group: developmental, developmental / developmental malformation / bone / ossification sites + systemic / in life observation / body weight / fetal weight
[38] = group: developmental, developmental / developmental malformation / bone / ossification sites + systemic / in life observation / body weight / fetal weight + …
[39] = systemic / clinical chemistry / alkaline phosphatase (alp/alk) / alkaline phosphatase (alp/alk) + systemic / hematology / hematocrit (hct…
[40] = systemic / hematology / erythrocyte (rbc) count differential / erythrocyte (rbc) + systemic / hematology / hematocrit (hct) / hematocrit (…

CC(C)=C1CC[C@@H](C)CC1=O [R-(+)-Pulegone]
LEL [1, 19]: 18.8 mg/kg/day
LOAEL [1, 20]: > 150 mg/kg/day
NEL [1, 20]: 9.38 mg/kg/day
NOAEL [1, 20]: ≥ 150 mg/kg/day
LEL [2, 21]: 9.38 mg/kg/day
NEL [2, 21]: < 9.38 mg/kg/day
LOAEL [2, 22]: > 150 mg/kg/day
NOAEL [2, 22]: ≥ 150 mg/kg/day
LOAEL ([3]; systemic / pathology microscopic / kidney / glomerulonephropathy + systemic / pathology microscopic / liver / basophilic focus + systemic / …): 37.5 mg/kg/day
LEL [3, 23]: 18.8 mg/kg/day
NEL [3, 23]: < 18.8 mg/kg/day
LOAEL [4, 24]: 75 mg/kg/day
NOAEL [4, 24]: 37.5 mg/kg/day
LEL [4, 25]: 37.5 mg/kg/day
NEL [4, 25]: < 37.5 mg/kg/day

Cc1ccc(S(=O)(=O)[O-])cc1C.[Na+] [Sodium xylenesulfonate]
NEL ([5]; systemic / in life observation / clinical signs / skin discoloration): 800 mg/kg/day
LOAEL [5, 26]: > 500 mg/kg/day
NOAEL [5, 26]: ≥ 500 mg/kg/day
LEL [6, 27]: 170 mg/kg/day
LOAEL [6, 27]: 1300 mg/kg/day
NEL [6, 27]: 60 mg/kg/day
NOAEL ([6]; systemic / pathology microscopic / skin / hyperplasia + systemic / in life observation / body weight / body weight gain): 440 mg/kg/day
LEL [7]: 364 mg/kg/day
LOAEL [7]: 364 mg/kg/day
NEL [7]: 182 mg/kg/day
NOAEL [7]: 182 mg/kg/day
LEL [8, 27]: 60 mg/kg/day
LOAEL [8, 27]: 120 mg/kg/day
NEL [8, 27]: < 60 mg/kg/day
NOAEL ([8]; systemic / pathology microscopic / skin / hyperplasia + systemic / in life observation / clinical signs / [other]): 60 mg/kg/day

Cc1nn(-c2cc(NS(C)(=O)=O)c(Cl)cc2Cl)c(=O)n1C(F)F [Sulfentrazone]
LOAEL [9, 28]: 375 mg/kg/day
LEL ([9]; group: developmental, systemic / in life observation / body weight / fetal weight + developmental / developmental malformation / bone / fused): 250 mg/kg/day
NEL [9, 29]: 100 mg/kg/day
NOAEL [9, 29]: 250 mg/kg/day
LOAEL [9, 30]: 375 mg/kg/day
NEL [9, 30]: 100 mg/kg/day
NOAEL [9, 30]: 250 mg/kg/day
LEL ([9]; group: maternal, reproductive / reproductive performance / resorptions / resorptions + systemic / in life observation / body weight / body weight gain + …): 250 mg/kg/day
LOAEL ([10]; systemic / hematology / microcytosis / microcytosis): 61.2 mg/kg/day
NEL [10, 31]: 9.9 mg/kg/day
NOAEL [10, 31]: 24.9 mg/kg/day
LEL ([10]; systemic / pathology microscopic / gallbladder / pigmentation): 24.9 mg/kg/day
LEL [11, 28]: 50 mg/kg/day
LOAEL [11, 28]: > 50 mg/kg/day
NEL [11, 28]: 25 mg/kg/day
NOAEL [11, 28]: ≥ 50 mg/kg/day
LEL [11, 32]: 50 mg/kg/day
LOAEL [11, 32]: > 50 mg/kg/day
NEL [11, 32]: 25 mg/kg/day
NOAEL [11, 32]: ≥ 50 mg/kg/day
LEL [12]: 25 mg/kg/day
LOAEL [12]: > 50 mg/kg/day
NEL [12]: < 25 mg/kg/day
NOAEL [12]: ≥ 50 mg/kg/day
LEL [13, 33]: 25 mg/kg/day
LOAEL [13, 33]: 25 mg/kg/day
NEL [13, 33]: 10 mg/kg/day
NOAEL [13, 33]: 10 mg/kg/day
LOAEL [13, 34]: 50 mg/kg/day
LEL [13, 35]: 50 mg/kg/day
NEL [13, 35]: 25 mg/kg/day
NOAEL [13, 35]: 25 mg/kg/day
LOAEL [14]: 65.8 mg/kg/day
NOAEL [14]: 19.9 mg/kg/day
LOAEL ([15]; systemic / hematology / hematocrit (hct) / hematocrit (hct) + systemic / hematology / hemoglobin (hgb) / hemoglobin (hgb)): 160 mg/kg/day
NOAEL ([15]; systemic / hematology / hematocrit (hct) / hematocrit (hct) + systemic / hematology / hemoglobin (hgb) / hemoglobin (hgb) + systemic / …): 93.9 mg/kg/day
LEL [15, 36]: 46.6 mg/kg/day
NEL [15, 36]: < 46.6 mg/kg/day
LEL [16, 37]: 25 mg/kg/day
LOAEL [16, 37]: 25 mg/kg/day
NEL [16, 38]: 10 mg/kg/day
NOAEL [16, 38]: 10 mg/kg/day
LOAEL [16, 34]: 50 mg/kg/day
LEL [16, 35]: 50 mg/kg/day
NEL [16, 35]: 25 mg/kg/day
NOAEL [16, 35]: 25 mg/kg/day
LOAEL [17, 39]: 57 mg/kg/day
NEL [17, 39]: 10 mg/kg/day
NOAEL [17, 39]: 28 mg/kg/day
LEL [17, 19]: 28 mg/kg/day
LOAEL [18, 40]: 108 mg/kg/day
NEL [18, 40]: 17.8 mg/kg/day
NOAEL [18, 40]: 60 mg/kg/day
LEL ([18]; systemic / hematology / hematocrit (hct) / hematocrit (hct)): 60 mg/kg/day
